This is an account of results in PMC3445549, “The Mode of Action of Isocyanide in Three Aquatic Organisms, Balanus amphitrite, Bugula neritina and Danio rerio” (PLoS ONE, 2012).

The test addresses T1, NADH-ubiquinone oxidoreductase (Amphibalanus amphitrite, UniProt A0A6A4V2F0).
T1 construct: gene NDUFV1; native protein from solubilised cyprid lysate; 50 kD band
As to the kind of experiment: affinity pull-down on Affi-gel […] matrix, SDS-PAGE, UPLC-MS/MS. Type of test: biochemical. The settings on record: isocyanide 2 coupled to matrix via its amine (labelled compound); competed by 0.4 mg/ml free isocyanide 2; cyprid lysate; wash 500 mM NaCl, 1% Triton X100.

T1 sequence (A0A6A4V2F0 27-476): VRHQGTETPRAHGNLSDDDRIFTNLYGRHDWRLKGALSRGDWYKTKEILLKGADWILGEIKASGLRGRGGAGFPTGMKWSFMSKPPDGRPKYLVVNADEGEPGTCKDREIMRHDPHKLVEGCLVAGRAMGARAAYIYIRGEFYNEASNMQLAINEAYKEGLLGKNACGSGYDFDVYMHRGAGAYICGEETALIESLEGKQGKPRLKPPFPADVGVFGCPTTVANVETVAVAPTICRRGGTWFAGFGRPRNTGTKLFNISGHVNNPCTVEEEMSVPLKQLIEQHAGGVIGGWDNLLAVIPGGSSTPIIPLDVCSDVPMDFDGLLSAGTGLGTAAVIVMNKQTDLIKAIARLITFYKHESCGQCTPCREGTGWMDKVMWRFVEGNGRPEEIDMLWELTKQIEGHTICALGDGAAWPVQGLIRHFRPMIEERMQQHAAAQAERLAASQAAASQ

As to `[C-]#[N+]C(C)(C)CCCCCCCCCN` [compound 2, 10-isocyano-10-methylundecan-1-amine], the “affinity pull-down on Affi-gel 10 matrix, SDS-PAGE, UPLC-MS/MS” value is “NADH-ubiquinone oxidoreductase was specifically identified in this protein band (Table S2)”.
